Activity and inhibition data for one compound are collected here from ChEMBL document CHEMBL4311992, “Discovery of 3-(((9H-purin-6-yl)amino)methyl)-4,6-dimethylpyridin-2(1H)-one derivatives as novel tubulin polymerization inhibitors for treatment of cancer” (Eur J Med Chem, 2019).

The source made the active and inactive calls. The rule behind the calls is not given here.

Broadly, the inhibition is the relative decrease from the control value, in per cent.

For one series, the target named is Tubulin (Homo sapiens) (UniProt P68371+Q9H4B7+P0DPH7+P68366+Q13509+Q71U36+P04350+Q3ZCM7+P07437+P68363+Q9BQE3+Q6PEY2+Q13885+Q9BVA1+Q9BUF5). The series is described as follows: Disruption of microtubule network in human HCT116 cells assessed as microtubule disorganization at 50 nM for 18 hrs by FITC/DAPI staining-based confocal microscopic analysis. The series is classed as cell-based.

The test system of the next series is SW-620. The series is described as follows: Induction of apoptosis in human SW620 cells assessed as necrotic cells at 50 nM measured after 48 hrs by Annexin V-FITC/propidium iodide staining-based flow cytometry (reference value: 2.71%). The series is classed as functional. On the technique in general: Flow cytometry measures light scatter and fluorescence of single cells or particles in a stream.

Series [1] concerns the target Cyclin-dependent kinase 1/cyclin B1 (Homo sapiens) (UniProt P06493+P14635). Put plainly: Inhibition of recombinant full-length human CDK1/cyclinB assessed as residual activity at 10 uM using histone H1 as substrate measured after 40 mins in presence of [gamma33P]ATP by scintillation counting method. The format is protein-complex assay.
The species named for series [2] is Homo sapiens. Put plainly: Inhibition of recombinant human BrSK2 S251I mutant (2 to end residues) assessed as residual activity at 10 uM using KKLNRTLSFAEPG as substrate measured after 40 mins in presence of [gamma33P]ATP by scintillation counting method.
Series [3] has as its target Mitogen-activated protein kinase 10 (Homo sapiens) (UniProt P53779). The series is described as follows: Inhibition of recombinant full-length human JNK3 assessed as residual activity at 10 uM using peptide substrate measured after 40 mins in presence of [gamma33P]ATP by scintillation counting method.
Series [4] deals with Cyclin-dependent kinase-like 1 (Homo sapiens) (UniProt Q00532). Put plainly: Inhibition of recombinant human CDKL1 (1 to 303 residues) assessed as residual activity at 10 uM using RRRFRPASPLRGP as substrate measured after 120 mins in presence of [gamma33P]ATP by scintillation counting method.
Cyclin-dependent kinase-like 1 (Homo sapiens), sequence (Q00532 whole entry, the tested form may be a part): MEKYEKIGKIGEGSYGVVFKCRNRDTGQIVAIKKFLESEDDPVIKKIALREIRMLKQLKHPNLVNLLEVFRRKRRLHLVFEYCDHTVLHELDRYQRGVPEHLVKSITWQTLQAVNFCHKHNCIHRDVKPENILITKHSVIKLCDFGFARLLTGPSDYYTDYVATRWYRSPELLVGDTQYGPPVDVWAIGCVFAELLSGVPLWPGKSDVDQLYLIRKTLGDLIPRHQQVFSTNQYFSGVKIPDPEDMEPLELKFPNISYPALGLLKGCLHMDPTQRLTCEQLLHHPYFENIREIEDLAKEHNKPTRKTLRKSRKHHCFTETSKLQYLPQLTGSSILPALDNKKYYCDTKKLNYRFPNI
The target of series [5] is Aurora kinase C (Homo sapiens) (UniProt Q9UQB9). Put plainly: Inhibition of recombinant human AURKC (35 to end residues) assessed as residual activity at 10 uM using AKRRRLSSLRA as substrate measured after 40 mins in presence of [gamma33P]ATP by scintillation counting method.
Aurora kinase C (Homo sapiens), sequence (Q9UQB9 whole entry, the tested form may be a part): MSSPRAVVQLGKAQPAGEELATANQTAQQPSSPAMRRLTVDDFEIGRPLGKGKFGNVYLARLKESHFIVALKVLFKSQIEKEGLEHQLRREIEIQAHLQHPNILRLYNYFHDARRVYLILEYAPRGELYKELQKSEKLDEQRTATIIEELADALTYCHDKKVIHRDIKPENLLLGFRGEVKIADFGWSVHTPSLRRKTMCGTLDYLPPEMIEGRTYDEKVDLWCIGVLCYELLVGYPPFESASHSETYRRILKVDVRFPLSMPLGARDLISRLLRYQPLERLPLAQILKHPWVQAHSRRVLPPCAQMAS
Series [6] deals with Serine/threonine-protein kinase MRCK beta (Homo sapiens) (UniProt Q9Y5S2). The series is described as follows: Inhibition of recombinant human MRCKbeta (1 to 473 residues) assessed as residual activity at 10 uM using KKRNRTLTV as substrate measured after 40 mins in presence of [gamma33P]ATP by scintillation counting method.
Series [7] deals with LIM domain kinase 2 (Homo sapiens) (UniProt P53671). The series is described as follows: Inhibition of recombinant human LIMK2 assessed as residual activity at 10 uM by radiometric method.
The target of series [8] is Insulin-like growth factor 1 receptor (Homo sapiens) (UniProt P08069). Put plainly: Inhibition of recombinant human IGF1R (959 to end residues) assessed as residual activity at 10 uM using KKKSPGEYVNIEFG as substrate measured after 40 mins in presence of [gamma33P]ATP by scintillation counting method.
The nature of series [9]: Toxicity in nude BALB/c mouse assessed as change in cholesterol level at 40 to 80 mg/kg, po once daily for 4 weeks measured post-last dose. The conditions noted are these: in vivo, 672 h. The format is organism-based.
In series [10] the target is Histone-lysine N-methyltransferase EZH2 (Homo sapiens) (UniProt Q15910). The series is described as follows: Inhibition of EZH2 (unknown origin) at 10 uM relative to control.
Histone-lysine N-methyltransferase EZH2 (Homo sapiens), sequence (Q15910 whole entry, looked up): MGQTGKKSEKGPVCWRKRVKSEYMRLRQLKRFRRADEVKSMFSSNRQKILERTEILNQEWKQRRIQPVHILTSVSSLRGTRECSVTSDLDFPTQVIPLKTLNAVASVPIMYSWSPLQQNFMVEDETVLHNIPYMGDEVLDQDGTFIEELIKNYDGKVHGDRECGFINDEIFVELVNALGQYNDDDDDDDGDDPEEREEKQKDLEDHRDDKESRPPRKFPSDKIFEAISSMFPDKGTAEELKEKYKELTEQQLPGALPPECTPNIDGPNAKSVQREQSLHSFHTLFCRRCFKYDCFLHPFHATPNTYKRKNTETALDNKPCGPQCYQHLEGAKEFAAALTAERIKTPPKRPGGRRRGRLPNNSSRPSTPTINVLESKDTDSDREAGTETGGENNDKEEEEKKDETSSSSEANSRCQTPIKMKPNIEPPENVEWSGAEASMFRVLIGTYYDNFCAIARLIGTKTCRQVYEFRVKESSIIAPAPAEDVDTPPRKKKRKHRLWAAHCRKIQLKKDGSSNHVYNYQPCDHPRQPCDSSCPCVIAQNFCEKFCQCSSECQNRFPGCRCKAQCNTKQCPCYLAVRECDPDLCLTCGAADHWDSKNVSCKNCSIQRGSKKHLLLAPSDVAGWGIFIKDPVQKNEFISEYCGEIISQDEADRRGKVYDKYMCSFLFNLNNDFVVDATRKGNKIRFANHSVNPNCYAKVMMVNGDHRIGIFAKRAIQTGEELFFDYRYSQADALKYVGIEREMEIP
Series [11] addresses CDK3/Cyclin E (Homo sapiens) (UniProt P24864+Q00526). The series is described as follows: Inhibition of recombinant full-length human CDK3/cyclinE assessed as residual activity at 10 uM using histone H1 as substrate measured after 40 mins in presence of [gamma33P]ATP by scintillation counting method. The series is classed as protein-complex assay.
Series [12] has as its target Cyclin-dependent kinase-like 3 (Homo sapiens) (UniProt Q8IVW4). The series is described as follows: Inhibition of recombinant human full-length CDKL3 (1 to 303 residues) assessed as residual activity at 10 uM using RRRFRPASPLRGP as substrate measured after 120 mins in presence of [gamma33P]ATP by scintillation counting method.
Series [13] addresses High affinity nerve growth factor receptor (Homo sapiens) (UniProt P04629). Put plainly: Inhibition of human TrkA (440 to end residues) using KKKSPGEYVNIEFG as substrate measured after 40 mins in presence of [gamma33P]ATP by scintillation counting method. Also noted: scale not given: the % may be the effect or the level left.
The target in series [14] is Tyrosine-protein kinase SYK (Homo sapiens) (UniProt P43405). Put plainly: Inhibition of recombinant full-length human Syk assessed as residual activity at 10 uM using poly(Glu, Tyr) 4:1 as substrate measured after 120 mins in presence of [gamma33P]ATP by scintillation counting method.
Series [15] addresses Serine/threonine-protein kinase 10 (Homo sapiens) (UniProt O94804). The series is described as follows: Inhibition of recombinant human LOK (1 to 348 residues) assessed as residual activity at 10 uM using RLGRDKYKTLRQIRQ as substrate measured after 40 mins in presence of [gamma33P]ATP by scintillation counting method.
For series [16], the system named is Glycogen synthase kinase-3 beta (Homo sapiens), P49841 [UNDEFINED MUTATION]. The series is described as follows: Inhibition of recombinant human GSK3beta H350L mutant (2 to end residues) assessed as residual activity at 10 uM using phospho GS2 peptide as substrate measured after 40 mins in presence of [gamma33P]ATP by scintillation counting method.
Glycogen synthase kinase-3 beta (Homo sapiens), P49841 [UNDEFINED MUTATION], sequence (P49841 whole entry, looked up, stated change not applied, the tested form may be a part): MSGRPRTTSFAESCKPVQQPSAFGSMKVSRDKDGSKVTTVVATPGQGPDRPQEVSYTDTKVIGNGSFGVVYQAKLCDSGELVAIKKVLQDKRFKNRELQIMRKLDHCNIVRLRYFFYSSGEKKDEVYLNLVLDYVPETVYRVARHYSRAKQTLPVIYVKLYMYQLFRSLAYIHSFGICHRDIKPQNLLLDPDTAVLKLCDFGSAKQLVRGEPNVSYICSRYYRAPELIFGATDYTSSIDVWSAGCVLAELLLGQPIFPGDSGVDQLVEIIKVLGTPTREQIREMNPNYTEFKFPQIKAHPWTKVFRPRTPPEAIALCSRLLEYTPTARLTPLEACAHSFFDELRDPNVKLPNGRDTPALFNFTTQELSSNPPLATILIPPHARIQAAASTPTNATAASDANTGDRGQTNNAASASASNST
The target of series [17] is Serine/threonine-protein kinase MRCK alpha (Homo sapiens) (UniProt Q5VT25). The series is described as follows: Inhibition of recombinant human MRCKalpha (1 to 473 residues) assessed as residual activity at 10 uM using KKRNRTLTV as substrate measured after 40 mins in presence of [gamma33P]ATP by scintillation counting method.
Series [18] concerns the target Proto-oncogene tyrosine-protein kinase Src (Homo sapiens) (UniProt P12931). Put plainly: Inhibition of recombinant full-length human SRC assessed as residual activity at 10 uM using Cdc2 peptide as substrate measured after 40 mins in presence of [gamma33P]ATP by scintillation counting method.
The target in series [19] is Serine/threonine-protein kinase PRP4 homolog (Homo sapiens) (UniProt Q13523). The series is described as follows: Inhibition of human PRP4 (663 to end residues) using casein as substrate measured after 40 mins in presence of [gamma33P]ATP by scintillation counting method. Also noted: scale not given: the % may be the effect or the level left.
Series [20] deals with Serine/threonine-protein kinase ICK (Homo sapiens) (UniProt Q9UPZ9). The series is described as follows: Inhibition of recombinant human ICK (1 to 312 residues) assessed as residual activity at 10 uM using RRRFRPASPLRGPPK as substrate measured after 40 mins in presence of [gamma33P]ATP by scintillation counting method.
Serine/threonine-protein kinase ICK (Homo sapiens), sequence (Q9UPZ9 whole entry, the tested form may be a part): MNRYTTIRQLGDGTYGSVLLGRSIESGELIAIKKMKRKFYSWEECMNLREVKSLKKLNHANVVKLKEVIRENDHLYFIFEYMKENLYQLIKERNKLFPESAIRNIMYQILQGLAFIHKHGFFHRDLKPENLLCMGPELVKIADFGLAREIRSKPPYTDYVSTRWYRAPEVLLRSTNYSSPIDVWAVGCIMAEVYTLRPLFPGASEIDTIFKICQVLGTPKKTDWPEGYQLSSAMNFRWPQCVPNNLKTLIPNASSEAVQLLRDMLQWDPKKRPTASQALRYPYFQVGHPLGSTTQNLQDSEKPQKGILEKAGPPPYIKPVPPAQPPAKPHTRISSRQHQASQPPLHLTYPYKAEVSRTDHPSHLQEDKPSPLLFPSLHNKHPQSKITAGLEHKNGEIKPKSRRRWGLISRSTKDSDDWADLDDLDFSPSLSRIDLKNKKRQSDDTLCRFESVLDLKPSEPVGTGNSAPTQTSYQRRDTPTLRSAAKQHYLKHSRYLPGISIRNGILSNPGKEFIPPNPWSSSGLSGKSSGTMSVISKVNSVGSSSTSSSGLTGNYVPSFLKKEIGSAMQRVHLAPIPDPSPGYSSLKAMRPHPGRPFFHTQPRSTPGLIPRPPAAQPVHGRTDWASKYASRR
The species named for series [21] is Homo sapiens. Put plainly: Inhibition of recombinant full-length human PI3K p120gamma R459Q mutant assessed as residual activity at 10 uM using phosphatidylinositol-4, 5-bisphosphate as substrate measured after 40 mins by fluorescence assay.
The target of series [22] is Protein kinase C theta type (Homo sapiens) (UniProt Q04759). The series is described as follows: Inhibition of recombinant full-length human PKCtheta assessed as residual activity at 10 uM using histone H1as substrate measured after 40 mins in presence of [gamma33P]ATP by scintillation counting method.
Protein kinase C theta type (Homo sapiens), sequence (Q04759 whole entry, looked up): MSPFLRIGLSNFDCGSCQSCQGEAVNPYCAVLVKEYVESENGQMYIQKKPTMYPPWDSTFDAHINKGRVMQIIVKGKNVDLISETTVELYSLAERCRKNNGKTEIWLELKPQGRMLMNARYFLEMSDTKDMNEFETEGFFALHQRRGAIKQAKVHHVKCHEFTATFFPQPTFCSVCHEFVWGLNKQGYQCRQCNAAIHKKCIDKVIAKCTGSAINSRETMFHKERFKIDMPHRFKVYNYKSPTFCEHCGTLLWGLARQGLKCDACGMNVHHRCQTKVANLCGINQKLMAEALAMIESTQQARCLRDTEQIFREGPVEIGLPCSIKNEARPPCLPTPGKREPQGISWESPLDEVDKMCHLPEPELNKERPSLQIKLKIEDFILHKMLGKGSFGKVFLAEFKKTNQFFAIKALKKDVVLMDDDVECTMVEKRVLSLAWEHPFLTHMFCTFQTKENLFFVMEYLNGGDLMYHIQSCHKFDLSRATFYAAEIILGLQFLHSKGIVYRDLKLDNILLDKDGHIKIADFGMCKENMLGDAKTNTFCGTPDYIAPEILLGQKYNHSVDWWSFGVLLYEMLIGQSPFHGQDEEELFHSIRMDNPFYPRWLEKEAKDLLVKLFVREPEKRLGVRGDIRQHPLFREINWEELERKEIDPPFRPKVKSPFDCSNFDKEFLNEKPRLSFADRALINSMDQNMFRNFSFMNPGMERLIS

Proto-oncogene tyrosine-protein kinase Src (Homo sapiens), sequence (P12931 2-536 limits assumed): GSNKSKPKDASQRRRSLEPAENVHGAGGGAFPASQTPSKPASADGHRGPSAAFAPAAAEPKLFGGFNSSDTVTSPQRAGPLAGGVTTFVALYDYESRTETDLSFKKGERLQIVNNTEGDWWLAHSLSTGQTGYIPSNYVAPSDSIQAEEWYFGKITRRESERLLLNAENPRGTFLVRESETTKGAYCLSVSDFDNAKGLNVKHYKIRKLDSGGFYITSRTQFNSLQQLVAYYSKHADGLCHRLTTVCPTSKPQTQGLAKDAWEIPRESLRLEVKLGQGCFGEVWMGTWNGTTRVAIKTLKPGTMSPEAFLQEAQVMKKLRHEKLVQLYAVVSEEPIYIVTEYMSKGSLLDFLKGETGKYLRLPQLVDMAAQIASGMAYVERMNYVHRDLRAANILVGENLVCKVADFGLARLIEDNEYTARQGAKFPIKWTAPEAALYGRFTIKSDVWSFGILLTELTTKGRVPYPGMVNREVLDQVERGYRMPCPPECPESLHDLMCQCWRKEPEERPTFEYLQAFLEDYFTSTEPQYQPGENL
CDK3/Cyclin E (Homo sapiens), sequence (P24864 whole entry, looked up, the tested form may be a part): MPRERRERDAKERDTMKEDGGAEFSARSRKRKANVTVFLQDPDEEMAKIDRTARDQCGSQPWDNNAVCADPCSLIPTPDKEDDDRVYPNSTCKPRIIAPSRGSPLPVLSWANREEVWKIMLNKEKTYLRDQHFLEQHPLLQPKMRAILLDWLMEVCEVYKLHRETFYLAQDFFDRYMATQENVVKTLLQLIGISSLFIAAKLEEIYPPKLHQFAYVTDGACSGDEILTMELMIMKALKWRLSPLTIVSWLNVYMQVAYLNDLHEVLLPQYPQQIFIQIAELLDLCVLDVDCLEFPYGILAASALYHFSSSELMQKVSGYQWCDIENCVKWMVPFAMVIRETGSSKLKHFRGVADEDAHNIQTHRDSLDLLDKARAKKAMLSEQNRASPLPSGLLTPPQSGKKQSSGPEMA
CDK3/Cyclin E (Homo sapiens), sequence (Q00526 whole entry, looked up, the tested form may be a part): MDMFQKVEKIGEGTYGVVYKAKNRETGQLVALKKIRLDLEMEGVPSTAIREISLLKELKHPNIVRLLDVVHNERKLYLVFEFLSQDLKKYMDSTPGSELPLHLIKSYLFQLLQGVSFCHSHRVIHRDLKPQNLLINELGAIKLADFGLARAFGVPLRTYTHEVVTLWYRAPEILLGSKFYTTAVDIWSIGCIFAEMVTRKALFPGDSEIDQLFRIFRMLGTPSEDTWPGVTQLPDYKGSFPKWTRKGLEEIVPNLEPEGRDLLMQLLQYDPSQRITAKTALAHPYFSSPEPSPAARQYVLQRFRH
Mitogen-activated protein kinase 10 (Homo sapiens), sequence (P53779 whole entry, the tested form may be a part): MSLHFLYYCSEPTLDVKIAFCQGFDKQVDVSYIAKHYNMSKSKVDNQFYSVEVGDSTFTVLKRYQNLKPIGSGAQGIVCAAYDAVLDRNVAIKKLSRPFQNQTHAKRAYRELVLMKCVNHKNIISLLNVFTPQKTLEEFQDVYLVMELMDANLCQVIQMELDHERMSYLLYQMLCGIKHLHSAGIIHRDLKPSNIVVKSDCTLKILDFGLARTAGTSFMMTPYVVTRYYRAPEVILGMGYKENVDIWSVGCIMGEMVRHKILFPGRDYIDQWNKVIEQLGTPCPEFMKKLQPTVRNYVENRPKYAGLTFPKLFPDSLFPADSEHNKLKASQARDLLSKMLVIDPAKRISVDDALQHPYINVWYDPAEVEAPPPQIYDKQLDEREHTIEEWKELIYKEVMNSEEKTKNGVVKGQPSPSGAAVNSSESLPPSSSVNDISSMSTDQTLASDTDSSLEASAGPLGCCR

Consider `Cc1cc(C)c(CNc2nc(Cl)nc3c2ncn3C2CCCC2)c(=O)[nH]1`, for which the outcome on Tubulin (Homo sapiens) was Active. Also, the Activity in the series with SW-620 came to 6.3%; in series [1] it was 102%; in the series filed under Homo sapiens [2] it was 123%; in series [3], 142%; in series [4], 122%; in series [5], 106%. Moreover, the Activity in [6] is 112%; in series [7], 106%; in [8], 81%; in series [9] it was “Non-Toxic”; in [11], 113%; in series [12], 126%. For the same compound, the Activity in [13] was determined as 92%; in series [14], 123%; in series [15], 91.5%; in [16], 112%; in series [17], 110%; in series [18], 130%. Further, the Activity came to 93% in [19], 114% in [20], 109% in the series listed under Homo sapiens [21] and 103% in series [22]. In addition, the inhibition in series [10] is -9%.
